Literature values, collected in patent EP4537663A1, “INCLUSION COMPLEX COMPRISING TRYPTOPHAN AND ARGININE; FERTILISING, BIOSTIMULANT AND ANTIMICROBIAL COMPOSITION COMPRISING SAME; PRODUCTION METHOD THEREOF; AND USE THEREOF” (Universidad de Valladolid, priority 2022, dated 2023).
Converted amounts (≈) assume the structure as drawn.

Details: at 25°C

- solubility in water: ~11.4 mg/mL (≈ 55.8 mM)
SMILES: N[C@@H](Cc1c[nH]c2ccccc12)C(=O)O [tryptophan]
